Among the data in ChEMBL document CHEMBL1134491, “QSAR and molecular modeling studies of baclofen analogues as GABA(B) agonists. Insights into the role of the aromatic moiety in GABA(B) binding and activation” (J Med Chem, 2001) are IC50 values, retold here.

SMILES strings stand for the structures.

Broadly, the IC50 is the midpoint of a concentration-inhibition curve.

This test can be described thus: Inhibitory concentration against binding of (R)-(-)-[3H]-baclofen to GABAB sites on rat whole brain synaptic membrane.
`Cc1ccc([C@H](CN)CC(=O)O)o1` came in with an IC50 greater than 100 µM. Then `NC[C@H](CC(=O)O)c1ccsc1`, with 20.9 µM. Then `NC[C@H](CC(=O)O)c1ccco1`, with greater than 100 µM; and `NC[C@H](CC(=O)O)c1cc(Cl)cs1`, with 45.3 µM. In turn, `Cc1ccc([C@H](CN)CC(=O)O)s1` gave an IC50 of 134 µM. The result for `NC[C@H](CC(=O)O)c1ccc(F)cc1` reads 0.8 µM; that for `NC[C@H](CC(=O)O)c1ccc(Cl)s1`, 0.61 µM; that for `Cc1ccsc1[C@H](CN)CC(=O)O`, 124 µM. As for `NC[C@H](CC(=O)O)c1ccc(Br)s1`, the half-inhibitory concentration (IC50) is 1.86 µM.

In turn, `NC[C@H](CC(=O)O)c1cccs1` gave an IC50 of 9.72 µM.

As to `NC[C@H](CC(=O)O)c1cc(Br)cs1`, the half-inhibitory concentration (IC50) is 39.1 µM. The result for `NC[C@H](CC(=O)O)c1ccc(O)cc1` reads greater than 100 µM. `NC[C@H](CC(=O)O)c1cccc(Cl)c1` came in with an IC50 of 20 µM. On to `NC[C@H](CC(=O)O)c1ccccc1Cl`, for which the IC50 was found to be 0.8 µM.
